Assay results: BindingDB's records for doi:10.1021/jm100306a (University of Pennsylvania, 2010)

Biological target: T1, Arginase-1 (Homo sapiens, UniProt P05089)
T1 sequence (P05089 whole entry): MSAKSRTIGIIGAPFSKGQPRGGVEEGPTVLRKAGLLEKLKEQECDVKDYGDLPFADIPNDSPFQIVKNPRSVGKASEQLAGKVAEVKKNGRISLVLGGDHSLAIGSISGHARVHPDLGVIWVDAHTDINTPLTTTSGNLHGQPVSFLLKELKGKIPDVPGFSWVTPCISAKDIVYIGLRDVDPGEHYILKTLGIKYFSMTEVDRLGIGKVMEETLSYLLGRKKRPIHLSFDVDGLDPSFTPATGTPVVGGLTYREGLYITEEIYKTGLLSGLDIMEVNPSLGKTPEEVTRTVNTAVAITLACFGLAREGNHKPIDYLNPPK
Experiment: Inhibition of human recombinant full length arginase 1 expressed in Escherichia coli BL21(DE3) by fixed point assay

- Ki: > 800 mM
Structure (SMILES): Nc1ncc(CCCC(N)C(=O)O)[nH]1 (stereo unspecified) [2-amino-5-(2-aminoimidazol-4-yl)pentanoic acid]
